Results taken from the NIST ThermoML archive (doi:10.1016/j.jct.2006.10.008).
Numbers after ± are expanded uncertainties.

Tests used:
[1] = xn = mol fraction of the nth substance listed; settings: 298.15 K, 101 kPa, Liquid
[2] = excess molar enthalpy (molar enthalpy of mixing); xn = mol fraction of the nth substance listed; settings: 298.15 K, 101 kPa, Liquid, Calvet calorimetry

CCCOC=O [propyl methanoate] + ClCCCCl
Settings	excess molar enthalpy [kcal/mol]	mass density [kg/m3]
[1], x1 = 0.0612	–	1161.75 ± 0.64
[1], x1 = 0.1204	–	1145.46 ± 0.61
[1], x1 = 0.1775	–	1129.76 ± 0.58
[1], x1 = 0.2355	–	1113.91 ± 0.55
[1], x1 = 0.2944	–	1097.92 ± 0.52
[1], x1 = 0.3527	–	1082.1 ± 0.49
[1], x1 = 0.4109	–	1066.46 ± 0.45
[1], x1 = 0.4695	–	1050.7 ± 0.42
[1], x1 = 0.5286	–	1034.93 ± 0.39
[1], x1 = 0.5863	–	1019.65 ± 0.36
[1], x1 = 0.6459	–	1003.85 ± 0.33
[1], x1 = 0.7044	–	988.35 ± 0.34
[1], x1 = 0.763	–	972.97 ± 0.36
[1], x1 = 0.8214	–	957.74 ± 0.37
[1], x1 = 0.8796	–	942.43 ± 0.39
[1], x1 = 0.9386	–	927.1 ± 0.41
[2], x1 = 0.0618	-0.000717 ± 0.000191	–
[2], x1 = 0.1342	-0.00406 ± 0.000215	–
[2], x1 = 0.2092	-0.00951 ± 0.000263	–
[2], x1 = 0.2838	-0.0162 ± 0.000311	–
[2], x1 = 0.3515	-0.0231 ± 0.000359	–
[2], x1 = 0.4148	-0.0297 ± 0.00043	–
[2], x1 = 0.4714	-0.0358 ± 0.000454	–
[2], x1 = 0.503	-0.0397 ± 0.000502	–
[2], x1 = 0.5539	-0.0461 ± 0.00055	–
[2], x1 = 0.6084	-0.0502 ± 0.000574	–
[2], x1 = 0.6696	-0.0491 ± 0.000574	–
[2], x1 = 0.7356	-0.0441 ± 0.000526	–
[2], x1 = 0.8024	-0.0365 ± 0.000478	–
[2], x1 = 0.8727	-0.0258 ± 0.000382	–
[2], x1 = 0.9394	-0.0134 ± 0.000311	–

ClCCCCCCl [1,5-dichloropentane] + COC=O
Settings	excess molar enthalpy [kcal/mol]	mass density [kg/m3]
[1], x2 = 0.1169	–	1086.48 ± 0.49
[1], x2 = 0.2211	–	1077.88 ± 0.48
[1], x2 = 0.3054	–	1070.16 ± 0.46
[1], x2 = 0.3849	–	1062.32 ± 0.45
[1], x2 = 0.4622	–	1054 ± 0.43
[1], x2 = 0.5291	–	1046.2 ± 0.41
[1], x2 = 0.5925	–	1038.15 ± 0.4
[1], x2 = 0.6496	–	1030.38 ± 0.38
[1], x2 = 0.7004	–	1022.87 ± 0.37
[1], x2 = 0.7481	–	1015.48 ± 0.35
[1], x2 = 0.792	–	1008.18 ± 0.34
[1], x2 = 0.8333	–	1001 ± 0.32
[1], x2 = 0.8711	–	993.92 ± 0.33
[1], x2 = 0.9066	–	986.88 ± 0.34
[1], x2 = 0.94	–	980.05 ± 0.35
[1], x2 = 0.9705	–	973.45 ± 0.35
[2], x2 = 0.1095	0.0523 ± 0.000598	–
[2], x2 = 0.2232	0.0884 ± 0.000884	–
[2], x2 = 0.3299	0.1192 ± 0.00112	–
[2], x2 = 0.4118	0.1356 ± 0.00124	–
[2], x2 = 0.4763	0.1457 ± 0.00131	–
[2], x2 = 0.5269	0.1465 ± 0.00131	–
[2], x2 = 0.5661	0.1483 ± 0.00134	–
[2], x2 = 0.613	0.1504 ± 0.00136	–
[2], x2 = 0.6627	0.1476 ± 0.00134	–
[2], x2 = 0.7114	0.1441 ± 0.00129	–
[2], x2 = 0.7734	0.1339 ± 0.00122	–
[2], x2 = 0.8369	0.1151 ± 0.0011	–
[2], x2 = 0.88	0.09362 ± 0.000932	–
[2], x2 = 0.9328	0.0669 ± 0.000741	–
[2], x2 = 0.9693	0.0361 ± 0.000574	–

CCCCCOC=O [pentyl methanoate] + ClCCCCCl
Settings	excess molar enthalpy [kcal/mol]	mass density [kg/m3]
[1], x1 = 0.0535	–	1118.26 ± 0.56
[1], x1 = 0.1055	–	1103.42 ± 0.53
[1], x1 = 0.1566	–	1089.12 ± 0.5
[1], x1 = 0.2106	–	1074.27 ± 0.47
[1], x1 = 0.2635	–	1060 ± 0.44
[1], x1 = 0.3199	–	1045.06 ± 0.41
[1], x1 = 0.3768	–	1030.28 ± 0.38
[1], x1 = 0.4344	–	1015.59 ± 0.35
[1], x1 = 0.4908	–	1001.46 ± 0.33
[1], x1 = 0.5505	–	986.81 ± 0.34
[1], x1 = 0.6109	–	972.26 ± 0.36
[1], x1 = 0.6726	–	957.67 ± 0.37
[1], x1 = 0.7351	–	943.19 ± 0.39
[1], x1 = 0.7986	–	928.74 ± 0.41
[1], x1 = 0.8646	–	914.02 ± 0.42
[1], x1 = 0.9292	–	899.89 ± 0.44
[2], x1 = 0.0558	-0.00368 ± 0.000215	–
[2], x1 = 0.1297	-0.0102 ± 0.000263	–
[2], x1 = 0.2099	-0.0181 ± 0.000335	–
[2], x1 = 0.2822	-0.0275 ± 0.000406	–
[2], x1 = 0.3497	-0.0373 ± 0.000478	–
[2], x1 = 0.4176	-0.0442 ± 0.000526	–
[2], x1 = 0.4615	-0.0492 ± 0.000574	–
[2], x1 = 0.4847	-0.0503 ± 0.000574	–
[2], x1 = 0.5352	-0.0522 ± 0.000598	–
[2], x1 = 0.5989	-0.0512 ± 0.000574	–
[2], x1 = 0.6703	-0.0498 ± 0.000574	–
[2], x1 = 0.7496	-0.0436 ± 0.000526	–
[2], x1 = 0.8354	-0.0321 ± 0.00043	–
[2], x1 = 0.9293	-0.0167 ± 0.000311	–
